According to patent EP0180500A1, “Thieno and furo[2,3-c]pyrrole derivatives, process for their preparation and medicaments containing them” (LIPHA, LYONNAISE INDUSTRIELLE PHARMACEUTIQUE, priority 1984, dated 1986):

How the values were obtained:
[1] = system: acidité gastrique; experiment: Pylorus-ligated rats according to Shay (gastric antisecretory test); settings: Rattus norvegicus, ip, 4 h, read-out: DE 50 et limites à 95 %
Excerpt: Quatre heures plus tard, les animaux sont sacrifiés et le contenu des estomacs prélevé pour mesure de l'acidité. Les composés sont injectés intrapéritonéalement, juste après la ligature du pylore. La dose abaissant l'acidité gastrique de 50 % (DE 50) est calculée pour chaque composé, par rapport à un lot non traité. Chaque composé est testé à 3 doses géamétriquement espacées. Chaque lot comprend 10 rats.

[2] = target: récepteurs histaminiques H2 (Cavia porcellus, UniProt P47747); experiment: Isolated guinea-pig atrium (histamine chronotropic effect, H2 blockade)
Chain of récepteurs histaminiques H2 (Cavia porcellus, UniProt P47747) (P47747 whole entry, the tested form may be a part): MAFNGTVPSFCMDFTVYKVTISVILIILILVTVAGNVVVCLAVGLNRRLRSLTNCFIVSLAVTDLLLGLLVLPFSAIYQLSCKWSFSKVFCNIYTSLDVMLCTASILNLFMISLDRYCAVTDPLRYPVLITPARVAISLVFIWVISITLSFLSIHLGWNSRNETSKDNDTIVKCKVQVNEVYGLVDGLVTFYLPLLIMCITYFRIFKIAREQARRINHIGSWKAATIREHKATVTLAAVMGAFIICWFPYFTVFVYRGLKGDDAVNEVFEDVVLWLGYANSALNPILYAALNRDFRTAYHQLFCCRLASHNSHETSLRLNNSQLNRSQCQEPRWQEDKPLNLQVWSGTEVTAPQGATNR
Method: Oreillette isolée de cobaye : Des cobayes albinos pesant entre 300 et 400 g sont assomés et saignés. Après ouverture du thorax, l'oreillette droite est rapidement dégagée et placée dans une cuve à organe isolé contenant 100 ml de Krebs (composition en g/1 : NaCl 6,9 - KCl 0,35 - CaCl2 0,28 - Mg SO4 0,14 - NaHCO3 2,09 - KH2 P04 0,16, glucose 2) maintenu à 32°C et fortement oxygéné (95 % 02, 5 % CO2).
L'oreillette est reliée à une jauge de contrainte isométrique, sous une tension de 1 g. Les battements spontanés sont enregistrés sur un enregistreur galvanométrique.
Après une période de stabilisation de 1 heure, des doses cumulées d'histamine sont ajoutées au milieu de survie, toutes les 5 minutes, ce qui occasionne une accélération des battements par stimulation des récepteurs de l'histamine qui, dans les tissus cardiaques sont de nature H2. L'histamine est ajoutée jusqu'à ce que le rythme de l'oreillette n'augmente plus (effet maximum). On peut alors tracer la courbe représentant la variation du rythme en fonction de la concentration d'histamine dans le bain. Après rinçages et repos de 30 minutes, la même expérimentation est reprise 30 minutes après avoir ajouté un antagoniste H2 dans le bain (composé de l'invention ou produit de référence) .
Chaque composé est ainsi testé à 3 concentrations géométriquement croissantes qui provoquent, en cas de blocage des récepteurs H2, un déplacement vers la droite des courbes concentration d'histamine/effet chronotrope. Pour chaque composé actif, nous déterminons un pA2, c'est à dire le cologarithme de la concentration du composé de l'essai pour laquelle il faut doubler la concentration d'histamine afin de retrouver un effet chronotrope donné. […] Un minimum de 3 oreillettes est utilisé pour chaque composé essayé.
Cette préparation permet aussi de se rendre compte de la nature, réversible ou non, de l'inhibition. Dans le premier cas, il sera toujours possible de déplacer l'antagoniste des récepteurs en pratiquant des rinçages répétés ou en utilisant une concentration plus forte d'histamine, ce qui se traduira par des courbes concentration d'histamine/ef- fet chronotrope, parallèles mais supexposables.
Par contre, dans le deuxième cas (inhibition difficilement réversible), l'antagonisme H2 ne peut être complètement levé, ni par rinçages ni par des concentrations élevées d'histamine, ce qui se traduit par des courbes dose/effet non superposables (l'effet chronotrope maximum est de plus en plus faible quand la concentration de l'antagoniste H2 croit).

[3] = system: récepteurs histaminiques H2; experiment: Histamine-induced gastric hyperacidity in the anaesthetised rat;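 on all read-outs here: Read-out is the continuously recorded acidity of a saline perfusate flowing through the stomach and collected at the pylorus, with at least 3 rats per dose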; settings: for DE 50 et limites à 95 %: dose reducing histamine-induced hyperacidity by 50 %, histamine infusion 25 µg/kg/minute, single i.v. dose, measured at peak action, 95 % limits in brackets; for Puissance relative Ranitidine = 1: relative potency from DE 50 I.V.
Method: Hyperacidité gastrique à l'histamine chez le rat anesthésié : (Black et Coll., Nature, 1972, 236, 385) : Des rats anesthésiés à l'éthylurétane reçoivent une perfusion continue d'histamine (25 µg/kg/minute)dans une veine jugulaire. L'estomac est continuellement perfusé par du sérum physiologique à 37°C, sous un débit constant de 3 ml/minute.
Une canule pylorique collecte le perfusat dont l'acidité est mesurée de façon continue. Chaque composé à examiner est administré par la voie intraveineuse (une seule dose par rat).L'inhibition de l'acidité est mesurée au délai correspondant au maximum d'action (délai variable d'un composé à un autre). Un minimum de 3 rats est utilisé pour chaque dose essayée. On détermine, pour chaque composé actif de l'invention, la dose diminuant de 50 % (DE 50), l'hyperacidité induite par l'histamine. On mesure en outre, pour les composés les plus actifs, la durée d'action résultant de l'injection intraveineuse d'une dose unique correspondant à la DE 50 arrondie.

[4] = system: rats; settings: rat, in vivo, iv
Excerpt: (§1) Les composés de l'invention sont en général très peu toxiques.

[5] = system: souris; settings: in vivo, iv
Excerpt: as §1

Kb [2] [µM] | Compound | ED50 [1] [mg/kg] | DE 50 et limites à 95 % [3] | Puissance relative Ranitidine = 1 [3] | effet toxique [4] | effet toxique [5]
0.0646 | CCCCCCN1Cc2cc(CSCCNc3n[s+]([O-])nc3N)sc2C1 (centres unmarked) [Exemple 30, N-[ [ (n.Hexyl-5 dihydro-5,5-4H-thiéno [2,3-c]pyrrolyl-2)méthylthio]-2 éthyl] oxyde-1 thiadiazole [1,2,5] diamine-3,4] | 0.5 | 0,2 (0,07-0,6) mg/kg/I.V. | 0,45 |  | 
0.0363 | CNC(=C[N+](=O)[O-])NCCSCc1ccc(CN(C)C)o1 [Ranitidine, reference compound] | 14 | 0,09 (0,05-0,17) mg/kg/I.V. | 1 |  | 
0.129 | CCN1Cc2cc(CSCCC(N)=NS(N)(=O)=O)sc2C1 [Exemple 8, [ (Ethyl-5 dihydro-5,6-4H-thiéno [2,3-c]pyrrolyl-2)méthylthio]-3 N-sulfamoyl propanamidine] | 18 | 0,5 (0,18-1,4) mg/kg/I.V. | 0,18 |  | 
1.26 | CCN1Cc2sc(CSCCNC(=C[N+](=O)[O-])NC)c(C)c2C1 [Exemple 19] | > 50 | > 5 mg/kg/I.V. |  |  | 
0.0209 | CCN1Cc2cc(CSCCNc3n[s+]([O-])nc3N)sc2C1 (centres unmarked) [Exemple 13, N-[ [ (Ethyl-5 dihydro-5,6-4H-thiéno [2,3-c]pyrrolyl-2)méthylthio]-2 éthyl] oxyde-1 thiadiazole [1,2,5,] diamine-3,4] | 1.5 | 0,03 (0,02-0,05) mg/kg/I.V. | 3 |  | 
0.0794 | C#CCNc1n[s+]([O-])nc1NCCSCc1cc2c(s1)CN(CC)C2 (centres unmarked) [Exemple 21, N-[ [ (Ethyl-5 dihydro-5,6-4H-thiéno [2,3-c]pyrrolyl-2)méthylthio]-2 éthyl] N'-propargyl oxyde-1 thiadiazole [1,2,5] diamine-3,4] | 32 | 0,6 (0,3 -1,2) mg/kg/I.V. | 0,15 |  | 
 | CNC(=NC#N)NCCSCc1[nH]cnc1C [Cimétidine, reference compound] | 42 | 0,4 (0,18-0,9) mg/kg/I.V. |  |  | 
1.32 | CNC(=C[N+](=O)[O-])NCCCOc1cccc2c1CCN(C)C2 [Composé A, N-méthyl N' - [(méthyl-2 tétrahydro-1,2,3,4 isoqwnoléine-5 oxy)-3 propyl] nitro-2 éthène diamine-1,1, reference compound] | > 50 | > 5 mg/kg/I.V. |  |  | 
 | N-[ [ (Isobutyl-5 dihydro-5,6-4H-thiéno [ 2,3-c ] pyrrolyl-2) méthylthio ]-2 éthyl J oxyde-1 thiadiazole [ 1,2,5 ] diamine-3,4 [Exemple 29] |  | 0,1 (0,04-0,25) mg/kg/I.V. | 0,9 |  | 
 | N-Cyano N' -[ [ (dihydro-5,6 isopropyl-5-4H-thiéno [2,3-c] pyrrolyl-2) méthylthio]-2 éthyl] N" méthyl guanidine [Exemple 6] |  | > 5 mg/kg/I.V. |  |  | 
0.105 | CCN1Cc2cc(CSCCNC(=NC#N)NC)sc2C1 [Exemple 1] | 19 | 0,6 (0,25-1,5) mg/kg/I.V. | 0,15 |  | 
0.0891 | CCCCCN1Cc2cc(CSCCNC(=C[N+](=O)[O-])NC)sc2C1 [Exemple 18, N-[ [ (Dihydro-5,6 n.pentyl-5-4H-thiéno [2,3-c]pyrrolyl-2)méthylthio]-2 éthyl]N'-méthyl nitro-2 éthène diamine-1,1] | 15 | 0,5 (0,17-1,5) mg/kg/I.V. | 0,18 |  | 
0.0631 | CCCN1Cc2cc(CSCCNc3c(N)c(=O)c3=O)sc2C1 [Exemple 34, Amino-3 [ [ (dihydro-5,6 n.propyl-5-4H-thiéno [2,3-c]pyrrolyl-2)méthylthio]-2 éthylamino]-4 cyclobutène dione-1,2] | 11 | 0,25 (0,12-0,5) mg/kg/I.V. | 0,36 |  | 
0.0427 | CCN1Cc2cc(CSCCNc3n[s+]([O-])nc3NC)sc2C1 (centres unmarked) [Exemple 20, N-[ [ (Ethyl-5 dihydro-5,6-4H-thiéno [2,3-c]pyrrolyl-2)méthylthio]-2 éthyl]N'-méthyl oxyde-1 thiadiazole-[1,2,5] diamine-3,4] | 20 | 0,1 (0,03-0,3) mg/kg/I.V. | 0,9 |  | 
 | CCN1Cc2cc(CSCCNc3nc(N)nn3C)sc2C1 [Exemple 11] |  | 0,4 (0,15-1) mg/kg/I.V. | 0,22 |  | 
0.0309 | CCCCCN1Cc2cc(CSCCNc3n[s+]([O-])nc3N)sc2C1 (centres unmarked) [Exemple 31] | 3.6 | 0,15 (0,07-0,3) mg/kg/I.V. | 0,6 |  | 
0.049 | COCCN1Cc2cc(CSCCNc3n[s+]([O-])nc3N)sc2C1 (centres unmarked) [Exemple 33, N-[ [ [Dihydro-5,6 (méthoxy-2 éthyl) -5-4H-thiéno [2,3-c]pyrolyl-2]méthylthio]-2 éthyl] oxyde-1 thiadiazole [1,2,5] diamine-3,4] | 0.7 | 0,2 (0,08-0,5) mg/kg/I.V. | 0,45 |  | 
0.0427 | CCCCN1Cc2cc(CSCCNc3n[s+]([O-])nc3N)sc2C1 (centres unmarked) [Exemple 28] | 1 | 0,2 (0,08-0,5) mg/kg/I.V. | 0,45 |  | 
0.0776 | CCN1Cc2cc(CSCCNC(=C[N+](=O)[O-])NC)sc2C1 [Exemple 3, N-[ [ (Ethyl-5 dihydro-5,6-4H-thiéno [2,3-c]pyrrolyl-2)méthylthio]-2 éthyl]N'-méthyl nitro-2 éthènediamine-1,1] | 8 | 0,3 (0,1 -0,9) mg/kg/I.V. | 0,3 |  | 

Compound | Kb [2] [µM] | ED50 [1] [mg/kg] | DE 50 et limites à 95 % [3] | Puissance relative Ranitidine = 1 [3] | effet toxique [4] | effet toxique [5]
CCCN1Cc2cc(CSCCNc3n[s+]([O-])nc3N)sc2C1 (centres unmarked) [Exemple 22] | 0.017 | 0.5 | 0,05 (0,02-0,11) mg/kg/I.V. | 1,8 | aucun effet toxique | aucun effet toxique
